Laboratory results reported in publication PMC7126659 (Bioorganic & Medicinal Chemistry Letters, 2007).

Assays:
ACE2 [1] = molecular target: T1, ACE2 (Homo sapiens, UniProt Q9BYF1); conditions: it has been reported; no reference given; cited from earlier work
ACE2 [2] = molecular target: T1, ACE2; assay: Directed screen of ACE2 versus a set of metalloprotease inhibitors; assay type: biochemical; conditions: directed screen of GlaxoSmithKline metalloprotease inhibitor set

T1 sequence (Q9BYF1 18-805): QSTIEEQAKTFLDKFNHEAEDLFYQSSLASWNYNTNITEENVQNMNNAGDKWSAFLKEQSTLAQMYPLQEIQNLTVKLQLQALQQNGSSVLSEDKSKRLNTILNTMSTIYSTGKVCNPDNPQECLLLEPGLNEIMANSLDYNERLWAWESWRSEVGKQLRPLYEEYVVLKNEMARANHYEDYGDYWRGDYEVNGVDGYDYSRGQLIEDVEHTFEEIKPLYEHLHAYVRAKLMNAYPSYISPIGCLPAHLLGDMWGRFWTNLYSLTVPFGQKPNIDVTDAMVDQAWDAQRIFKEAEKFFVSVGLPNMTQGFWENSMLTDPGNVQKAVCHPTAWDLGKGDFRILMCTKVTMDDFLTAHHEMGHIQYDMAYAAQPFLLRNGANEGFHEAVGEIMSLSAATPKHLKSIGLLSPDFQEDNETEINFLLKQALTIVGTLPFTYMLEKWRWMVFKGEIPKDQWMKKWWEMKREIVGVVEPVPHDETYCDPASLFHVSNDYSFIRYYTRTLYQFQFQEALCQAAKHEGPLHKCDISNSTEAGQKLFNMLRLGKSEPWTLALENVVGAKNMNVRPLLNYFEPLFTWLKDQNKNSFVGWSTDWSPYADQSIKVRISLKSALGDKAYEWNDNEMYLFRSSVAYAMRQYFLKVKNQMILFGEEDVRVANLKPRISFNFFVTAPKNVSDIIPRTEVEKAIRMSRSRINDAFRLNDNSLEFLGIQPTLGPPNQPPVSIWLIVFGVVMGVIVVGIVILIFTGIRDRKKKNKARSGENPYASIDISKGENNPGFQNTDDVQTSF

activity in the ACE2 screen (ACE2 [2])	Structure (SMILES)	effect on ACE2 enzyme activity (ACE2 [1])
	NCCCC[C@H](N[C@@H](CCc1ccccc1)C(=O)O)C(=O)N1CCC[C@H]1C(=O)O [lisinopril]	do not attenuate ACE2 enzyme activity
inactive	C[C@H](CS)C(=O)N1CCC[C@H]1C(=O)O [captopril]	do not attenuate ACE2 enzyme activity
